Experimental data published in patent publication US20060110439A1, “Dermal delivery of n-methyl-glucamine and n-methyl-glucamine compounds” (Dynamis Therapeutics, Inc., priority 2004, published 2006).

Experiments:
3DG = details: in vivo; cited from earlier work
[1] = test system: 3DG-dependent crosslinking of collagen type I; assay: Inhibition of 3DG collagen crosslinking in vitro (CnBr digest, SDS-PAGE); assay type: biochemical; details: calf skin collagen type 1, 5 mM 3DG plus 10 mM arginine, 24 hr
Experimental: The direct inactivation of 3DG is a method of reducing 3DG levels. Calf skin collagen type 1 (1.3 mg) was incubated with no addition, with 5 mM 3DG, or with 5 mM 3DG plus 10 mM of arginine for 24 hr. Each sample was digested with cyanogen bromide (CnBr) to create peptide fragments that are visualized by sodium-dodecyl sulfate-polyacrylamide gel electrophoresis (SDS-PAGE) (FIG. 4). Lane 2 is collagen alone; lane 3 is collagen plus 5 mM 3DG; and lane 4 is collagen plus 5 mM 3DG plus 10 mM arginine. Lanes 5, 6, and 7 are the same, but with twice as much sample applied.
Crosslinking was assessed by visually determining the amount of high molecular weight protein remaining near the origin of the resolving gel, as compared to the amount that migrates into the gel matrix. The more crosslinking that exists, the more material there is near the origin of the gel. The lanes containing collagen with 3DG (#3, #6) have more material residing at the origin than those containing collagen alone (#2, #5).

In the case of `N[C@@H](CCCCNC[C@H](O)[C@@H](O)[C@@H](O)[C@H](O)CO)C(=O)O` [galactitollysine], the “urinary or plasma 3DG” value (3DG) is given as “reduced”.
For `N[C@@H](CCCCNC[C@H](O)[C@@H](O)[C@H](O)[C@H](O)CO)C(=O)O` [sorbitollysine], the “urinary or plasma 3DG” value (3DG) is given as “reduced”.
In the case of `N[C@@H](CCCCNC[C@@H](O)[C@@H](O)[C@H](O)[C@H](O)CO)C(=O)O` [mannitollysine], the “urinary or plasma 3DG” value (3DG) is given as “reduced”.
For `N=C(N)NCCC[C@H](N)C(=O)O` [arginine], the “3DG crosslinking of collagen (high molecular weight protein near gel origin, visual)” value [1] was “able to inactivate 3DG and prevent it from crosslinking collagen”.
In the case of `CNC[C@H](O)[C@@H](O)[C@H](O)[C@H](O)CO` [meglumine, N-methyl glucamine], the “urinary or plasma 3DG” value (3DG) is given as “reduced”.
